Measurements published in patent US8143227B2, “Azithromycin for treatment of skin disorders” (priority 2008, dated 2012).
Converted amounts (≈) assume the structure as drawn.

Columns and labels:
Streptococcus pyogenes = details: Neu 1991; cited from earlier work
[1] = Additional low dosage regimens, adverse effects; type: in vivo, human
Procedure: The numbers of facial inflammatory lesions: papules, pustules, and nodules, and non-inflammatory lesions: open and closed comedones, were counted at the beginning of treatment and again after 3 weeks of treatment and after 6 weeks of treatment. Additionally, nodules were counted independently at each of these visits. Additionally, during the treatment study, each subject reported the occurrence of any adverse effects. The results of this study for the 25 mg/day regimen are shown in Table 7 and for the 80 mg every other day regiment in Table 8. In these tables, the numbers represent the mean number of lesions in the four subjects of each group. The % decrease from Day 0 was calculated as the mean of the differences for each of the parameters (inflammatory lesions, non-inflammatory lesion and nodules) for each individual subject on Day 21 and Day 42.

[2] = Azithromycin levels in plasma; details: for average azithromycin plasma level at steady state: steady state conditions; for AUC / AUC(0-t) / Cmax: human, plasma, po
Procedure: Plasma levels of azithromycin were determined as follows. Thirty-nine patients were randomized into one of three treatment groups. Each patient received 40 mg (n=13), 80 mg (n=11), or 120 mg (n=15) of oral azithromycin daily. After the initial dose on day 0, a second dose was not administered until 72 hours later, so as to permit measurement of plasma levels based on a single dose and determination of pharmacokinetic parameters. Blood samples from each patient were taken at times equal to 0 (before dosing), 1, 2, 3, 4, 6, 8, 24, 48, and 72 hours after the initial oral dose. Following 72 hours, each patient received azithromycin daily for the remainder of six weeks (42 days). Blood samples were also taken at times equal to 0 hours (before dosing) and 3 hours after dosing on day 21, and at times equal to 0, 1, 2, 3, 4, 6, 8, and 24 hours following the last dose given on day 42. Plasma samples obtained from the blood samples were stored at −20° C. or lower after collection until processing and analysis.
The amount of azithromycin in plasma was quantified using a validated high pressure liquid chromatographic assay with mass spectroscopy detection. Standards and samples were treated, by pipet addition, with 10.0 microliter of 1:1 acetonitrile/water. The standards and samples were then treated, by pipet addition, with 10.0 microliter of an Azaerythromycin A internal standard solution, followed by the addition of 2.0 mL of the mobile phase, which contained a 250:150:100:0.5:0.1 mixture of ethyl acetate, methanol, acetonitrile, formic acid and morpholine. After tightening Teflon caps onto the extraction jars containing the treated standards and samples, the jars were rotated for 2 hours at 1 rps. Next, 0.20 mL aliquots were removed from each jar and transferred to HPLC autosampler vials, and the vials capped and placed in the autosampler tray for LC-MS-MS analysis. A 5 microliter aliquot was injected from each vial into a suitable high pressure liquid chromatograph (HPLC) with suitable mass spectrophotometry-mass spectrometery detection, such as a Sciex API 3000 LC-MS-MS (GenTech Scientific, Inc., Arcade, N.Y.) with heated nebulizer source. The column used was PVA-Sil, 5 micron, 4.0×50 mm cartridge (Waters Corporation, Milford, Mass.). The flow rate was 1 ml/minute. To determine the amount of azithromycin, the peak area of the m/z 750→592 azithromycin product ion was measured against the peak area of the m/z 736→578 azaerythromycin A internal standard product ion.
Plasma azithromycin concentrations were tabulated for each of the subjects for each dose group 40 mg/day, 80 mg/day, and 120 mg/day, respectively. The pharmacokinetic evaluation was based on individual plasma concentration-time data of azithromycin and was performed using model-independent analysis methods within WinNonlin™ version 5.0.1 (Pharsight Corporation, Mountain View, Calif.). […] Cmax, the maximum plasma concentration, was obtained directly from the concentration-time data. AUClast, the area under the plasma concentration-time curve from time 0 to time t (the time of last quantifiable plasma concentration), was calculated using the linear trapezoidal rule from predose to the last quantifiable plasma concentration. AUC24, the area under the plasma concentration-time curve from time 0 to time t=24 hours, was calculated in a manner similar to the calculation for AUClast except from predose to 24 hours.

CC[C@H]1OC(=O)[C@H](C)[C@@H](O[C@H]2C[C@@](C)(OC)[C@@H](O)[C@H](C)O2)[C@H](C)[C@@H](O[C@@H]2O[C@H](C)C[C@H](N(C)C)[C@H]2O)[C@](C)(O)C[C@@H](C)CN(C)[C@H](C)[C@@H](O)[C@]1(C)O [Azithromycin, 9-deoxo-9a-aza-9a-methyl-9a-homoerythromycin A]
MIC90 against Streptococcus pyogenes (Streptococcus pyogenes): 0.12 µg/mL (≈ 0.16 µM)
adverse effects reported ([1]; 25 mg per day for 6 weeks, migraine headache on day 21, deemed not related): only one adverse effect was reported
typical antibiotic side effects (abdominal cramping, nausea, vomiting, diarrhea or vaginitis) ([1]; 25 mg per day or 80 mg every other day for 6 weeks): no typical antibiotic side effects reported
adverse effects reported ([1]; 80 mg every other day for 6 weeks): no adverse effects were reported
average maximum azithromycin plasma level ([2]; 40 mg/day group, after administration on day 42): about 16 ng/ml
average maximum azithromycin plasma level ([2]; 40 mg/day group, after initial dose): about 15 ng/ml
average azithromycin plasma level at steady state ([2]; 40 mg/day group): about 4 ng/ml
average maximum azithromycin plasma level ([2]; 80 mg/day group, after administration on day 42): ~54 ng/mL
average maximum azithromycin plasma level ([2]; 80 mg/day group, after initial dose): ~59 ng/mL
average azithromycin plasma level at steady state ([2]; 80 mg/day group): ~10 ng/mL
average maximum azithromycin plasma level ([2]; 120 mg/day group, after administration on day 42): ~68 ng/mL
average maximum azithromycin plasma level ([2]; 120 mg/day group, after initial dose): ~45 ng/mL
average azithromycin plasma level at steady state ([2]; 120 mg/day group): ~22 ng/mL
maximum plasma concentration compared with MIC ([2]; day 0 and day 42, all dosages tested): less than the MIC of azithromycin for P. acnes
AUC ([2]; 40 mg): 44.7 ng·h/mL
AUC(0-t) ([2]; 40 mg): 73.4 ng·h/mL
Cmax ([2]; 40 mg): 7.08 ng/mL
AUC ([2]; 40 mg/day): 132 ng·h/mL
Cmax ([2]; 40 mg/day): 13.8 ng/mL
AUC ([2]; 80 mg): 294 ng·h/mL
AUC(0-t) ([2]; 80 mg): 456 ng·h/mL
Cmax ([2]; 80 mg): 60.3 ng/mL
AUC ([2]; 80 mg/day): 528 ng·h/mL
Cmax ([2]; 80 mg/day): 53.9 ng/mL
AUC ([2]; 120 mg): 293 ng·h/mL
AUC(0-t) ([2]; 120 mg): 433 ng·h/mL
Cmax ([2]; 120 mg): 57.9 ng/mL
AUC ([2]; 120 mg/day): 752 ng·h/mL
Cmax ([2]; 120 mg/day): 92.9 ng/mL
time of peak average plasma level ([2]; post administration of initial dose, each treatment group): 3 h
